Values of other authors, collected in US6316473A, “Two surfactant-containing medicinal composition” (Fujisawa Pharmaceutical Co., Ltd., priority 1997, dated 2001).

Details: stated as well known

solubility in water: only sparingly soluble in water
Compound: C=CC[C@@H]1/C=C(\C)C[C@H](C)C[C@H](OC)[C@H]2O[C@@](O)(C(=O)C(=O)N3CCCC[C@H]3C(=O)O[C@H](/C(C)=C/[C@@H]3CC[C@@H](O)[C@H](OC)C3)[C@H](C)[C@@H](O)CC1=O)[C@H](C)C[C@@H]2OC [FK506, 17-allyl-1,14-dihydroxy-12-[2-(4-hydroxy-3-methoxycyclohexyl)-1-methylvinyl]-23,25-dimethoxy-13,19,21,27-tetramethyl-11,28-dioxa-4-azatricyclo[22.3. 1.0 4,9]octacos-18-ene-2,3,10,16-tetraone]
